{
  "source": "paper PMC7367283",
  "about": "“A PIP2 substitute mediates voltage sensor-pore coupling in KCNQ activation” (Communications Biology, 2020)",
  "key": {"NaV1.5 [1]": {"target": "T1, NaV1.5 (Homo sapiens, UniProt Q14524)", "T1 sequence (Q14524 whole entry)": "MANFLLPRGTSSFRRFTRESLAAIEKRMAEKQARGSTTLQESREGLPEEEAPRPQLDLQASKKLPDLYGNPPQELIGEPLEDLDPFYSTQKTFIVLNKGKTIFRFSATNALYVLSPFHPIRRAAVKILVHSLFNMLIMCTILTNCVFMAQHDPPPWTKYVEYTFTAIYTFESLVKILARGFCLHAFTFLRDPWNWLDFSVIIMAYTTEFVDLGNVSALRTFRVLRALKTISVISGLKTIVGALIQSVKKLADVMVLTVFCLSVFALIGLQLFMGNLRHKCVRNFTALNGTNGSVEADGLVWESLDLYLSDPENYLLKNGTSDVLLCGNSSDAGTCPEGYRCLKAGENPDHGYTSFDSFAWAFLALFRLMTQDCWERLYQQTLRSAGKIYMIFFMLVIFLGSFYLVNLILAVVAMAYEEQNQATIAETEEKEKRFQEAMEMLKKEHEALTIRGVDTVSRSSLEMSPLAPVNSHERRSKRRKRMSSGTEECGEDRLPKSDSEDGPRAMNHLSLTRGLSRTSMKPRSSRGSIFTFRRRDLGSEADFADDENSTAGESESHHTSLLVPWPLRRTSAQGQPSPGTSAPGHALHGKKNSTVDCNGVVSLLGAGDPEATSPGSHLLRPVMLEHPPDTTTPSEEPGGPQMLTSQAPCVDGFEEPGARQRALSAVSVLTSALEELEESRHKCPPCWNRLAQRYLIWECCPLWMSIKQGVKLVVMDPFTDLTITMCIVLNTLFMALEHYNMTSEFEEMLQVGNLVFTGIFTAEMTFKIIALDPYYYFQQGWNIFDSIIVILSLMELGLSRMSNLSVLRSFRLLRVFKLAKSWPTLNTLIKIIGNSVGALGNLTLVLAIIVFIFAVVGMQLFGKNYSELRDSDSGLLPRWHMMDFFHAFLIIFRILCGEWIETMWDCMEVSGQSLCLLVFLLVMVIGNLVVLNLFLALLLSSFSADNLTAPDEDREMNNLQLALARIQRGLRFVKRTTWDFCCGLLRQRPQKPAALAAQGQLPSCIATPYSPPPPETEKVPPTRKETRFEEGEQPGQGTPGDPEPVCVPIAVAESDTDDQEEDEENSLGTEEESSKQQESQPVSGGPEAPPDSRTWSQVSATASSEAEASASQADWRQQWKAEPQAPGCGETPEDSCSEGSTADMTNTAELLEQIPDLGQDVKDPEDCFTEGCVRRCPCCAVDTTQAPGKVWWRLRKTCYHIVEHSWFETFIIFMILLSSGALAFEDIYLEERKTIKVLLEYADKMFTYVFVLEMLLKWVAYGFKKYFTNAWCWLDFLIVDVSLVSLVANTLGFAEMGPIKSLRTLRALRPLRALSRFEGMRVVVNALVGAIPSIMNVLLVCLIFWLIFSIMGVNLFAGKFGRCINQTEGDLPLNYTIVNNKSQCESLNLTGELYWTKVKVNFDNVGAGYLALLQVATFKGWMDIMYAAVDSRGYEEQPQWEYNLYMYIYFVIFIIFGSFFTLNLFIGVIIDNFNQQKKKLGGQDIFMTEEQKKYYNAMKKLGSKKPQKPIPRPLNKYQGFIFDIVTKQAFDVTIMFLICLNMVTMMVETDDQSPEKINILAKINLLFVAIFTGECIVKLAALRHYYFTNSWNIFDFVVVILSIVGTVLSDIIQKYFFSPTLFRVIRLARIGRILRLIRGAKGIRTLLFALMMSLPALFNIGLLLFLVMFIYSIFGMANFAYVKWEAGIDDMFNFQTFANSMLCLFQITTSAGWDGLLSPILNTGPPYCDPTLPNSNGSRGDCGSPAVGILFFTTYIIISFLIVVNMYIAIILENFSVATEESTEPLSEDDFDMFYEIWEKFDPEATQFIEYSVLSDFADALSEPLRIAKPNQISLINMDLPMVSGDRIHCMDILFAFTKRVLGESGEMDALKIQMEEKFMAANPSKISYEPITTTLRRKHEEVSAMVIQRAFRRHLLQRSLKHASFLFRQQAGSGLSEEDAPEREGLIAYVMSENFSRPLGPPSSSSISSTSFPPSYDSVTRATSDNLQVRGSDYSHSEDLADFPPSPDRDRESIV", "T1 sequence (Q07699 19-218 partner)": "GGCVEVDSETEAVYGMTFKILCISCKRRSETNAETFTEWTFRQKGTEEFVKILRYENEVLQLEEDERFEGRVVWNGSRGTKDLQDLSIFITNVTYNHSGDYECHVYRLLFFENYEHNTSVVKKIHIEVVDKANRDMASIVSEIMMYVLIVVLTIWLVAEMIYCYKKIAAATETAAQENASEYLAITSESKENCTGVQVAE", "experiment": "Cut-open oocyte recording of NaV1.5", "format": "cell-based", "conditions": "10 µM CP1"}, "NaV1.5 [2]": {"target": "T1, NaV1.5", "experiment": "Cut-open oocyte recording of NaV1.5", "format": "cell-based", "conditions": "10 µM CP1", "text": "Since CP1 has a similar effect to PIP2 in mediating VSD-pore coupling in KCNQ channels, we tested if CP1 has effects on other ion channels that are also sensitive to PIP2 or are voltage activated and share general structural features of the VSD and the pore with KCNQ. […] On the other hand, NaV1.5 and KV4.2 are voltage-gated ion channels.\nFig. 6 Effects of CP1 on other ion channels expressed in Xenopus oocytes. a Currents of Kir1.1, CaV1.2, NaV1.5, hERG, and KV4.2 before and after application of 10 µM CP1, respectively. The voltages for holding, test, and returning pulses were Kir1.1, 0 mV, −100 to +60 mV, 0; CaV1.2, −100 mV, −100 to +60, −100 mV; NaV1.5, −100, −120 to +40 mV, −120 mV; hERG, −80 mV, −90 to +60 mV, −60 mV; KV4.2, −80 mV, −100 mV to +80 mV, −40 mV; HCN4, −30 mV, −30 to −140 mV, −120 mV. b Current–voltage relations of Kir1.1 channel in the absence or presence of 10 µM CP1 (n = 7). c–g G–V relations of indicated channels with and without 10 µM CP1. The ΔV1/2 of G–V relations (mV) are CaV1.2, 3.38 ± 0.71 mV (c); NaV1.5, −2.26 ± 0.95 mV (d); hERG, 6.85 ± 1.81 mV (e); KV 4.2, −2.26 ± 2.88 mV (f); HCN4, 17.13 ± 1.59 mV (g).\nComplementary DNA (cDNA) encoding human KCNQ1 (UniProtKB/Swiss‐Prot under accession no. P51787), KCNQ2 (O43526), KCNQ3 (O43525), KCNE1 (P15382), Kir1.1 (P48048), hERG (Q12809), KV4.2 (Q63881), NaV1.5 (Q14524), NaV β1 (Q07699), CaV1.2 (Q13936), CaV β1a (Q02641), CaV α2/δ1 (P54289), and HCN4 (Q9Y3Q4) were subcloned into oocyte expression vectors, respectively. Site-directed mutations of the KCNQ1 channel were all produced by overlap extension polymerase chain reaction (PCR) with high-fidelity Pfu polymerase (Stratagene, CA). The presence of the desired mutation was verified by sequencing the PCR-amplified regions. All the primer sequences used in this study are available in Supplementary Table 1. The complementary RNA (cRNA) of all these channels and mutations was transcribed in vitro with the T3, T7, or SP6 polymerase mMessage mMachine kit (Invitrogen, Thermo Fisher Scientific, MO).\nThe use of Xenopus laevis to obtain oocytes was approved by the Washington University Animal Studies Committee (protocol #20190030). Oocytes were manually dispersed and digested with collagenase (0.5 mg/ml, Sigma-Aldrich, Saint Louis, MO) to remove the follicle cell layer. Stage V or VI oocytes were selected and injected with cRNAs (9.2 ng) of channel or mutations. Especially, to characterize IKs, a mix of cRNAs at a molar ratio 4:1 (KCNQ1:KCNE1) was injected. For KCNQ2/KCNQ3, the molar ratio was 1:1 (KCNQ2:KCNQ3). For sodium channels, a 3:1 molar ratio (β1:NaV1.5) and for calcium channels a weight ratio 1:1:1 (β1:α2/δ1:CaV1.2) was injected, respectively. Injected oocytes were incubated in ND96 solution containing (in mM) 96 NaCl, 2 KCl, 1.8 CaCl2, 1 MgCl2, and 5 HEPES, pH 7.6, supplemented with 2.5 mM Na pyruvate and 1% penicillin–streptomycin, at 18 °C for 3–7 days before recording.\nNaV1.5 currents were recorded with a cut-open amplifier (CA-1B, Dagan Corporation) coupled with an A/D converter (Digidata 1440, Molecular Devices). The data were acquired using Clampex software (v10, Molecular Devices). The internal solution was composed of (mM) 105 NMG‐Mes, 10 Na‐Mes, 20 HEPES, and 2 EGTA, pH 7.4. The external solution was composed of (mM) 25 NMG‐Mes, 90 Na‐Mes, 20 HEPES, and 2 Ca‐Mes2, pH 7.4. The ionic currents were recorded using the standard I–V protocol. From a holding potential of −120 mV, cells were stepped to a 100-ms prepulse of −120 mV and then stepped to test potentials ranging from −120 to 60 mV with 20-mV increment, […] a 100-ms postpulse of −120 mV.", "remark": "listed apart in the source"}},
  "data": [
    {"smiles": "O=S(=O)([O-])Oc1c(-c2sc3c(ccc4cccc(Cl)c43)c2OS(=O)(=O)[O-])[nH]c2ccc(Br)cc12.[Na+].[Na+]", "note": "[CP1, DISODIUM 5-BROMO-2-[9-CHLORO-3-(SULFONATOOXY) NAPHTHO [1,2-B] THIEN-2-YL]-1H-INDOL-3-YL SULFATE]", "values": [
      {"measurement": "G/Gmax Mean (Fig. 6d)", "setting": "NaV1.5 [1]; voltage -140 mV", "result": 0.0026},
      {"measurement": "G/Gmax Mean (Fig. 6d)", "setting": "NaV1.5 [1]; voltage -160 mV", "result": 0.0055},
      {"measurement": "ΔV1/2 of G–V relations", "setting": "NaV1.5 [2]", "result": "−2.26 ± 0.95", "unit": "mV"},
      {"measurement": "G/Gmax Mean (Fig. 6d)", "setting": "NaV1.5 [2]; voltage 0 mV", "result": 0.9380},
      {"measurement": "G/Gmax Mean (Fig. 6d)", "setting": "NaV1.5 [2]; voltage 20 mV", "result": 1.0000},
      {"measurement": "G/Gmax Mean (Fig. 6d)", "setting": "NaV1.5 [2]; voltage -20 mV", "result": 0.9095},
      {"measurement": "G/Gmax Mean (Fig. 6d)", "setting": "NaV1.5 [2]; voltage -40 mV", "result": 0.8354},
      {"measurement": "G/Gmax Mean (Fig. 6d)", "setting": "NaV1.5 [2]; voltage -60 mV", "result": 0.4098},
      {"measurement": "G/Gmax Mean (Fig. 6d)", "setting": "NaV1.5 [2]; voltage -80 mV", "result": 0.0040},
      {"measurement": "G/Gmax Mean (Fig. 6d)", "setting": "NaV1.5 [2]; voltage -100 mV", "result": 0.0015},
      {"measurement": "G/Gmax Mean (Fig. 6d)", "setting": "NaV1.5 [2]; voltage -120 mV", "result": 0.0016}
    ]}
  ]
}
